Reference: patent publication US12558348B2, “Bioactive phytochemicals” (Phytoquest Limited, priority 2019, dated 2026)

What was measured:
IL-1β = IL-1β ELISA in LPS stimulated THP-1 cells; format: cell-based, human; settings: for % reduction in IL-1 β levels: vs LPS control
Method: (§1) The cells in an 80% confluence culture flask were aspirated and centrifuged at 1500 rpm for 5 mins. The cell pellet was then resuspended in 1 ml of RPMI complete media and 1×10^5 cells/well seeded to each well of the 96 well microtiter plate. After 24 hrs incubation, PMA (10 ng/ml) was added to the 96 well plate to differentiate THP-1 cells to determine the TNF-α production, THP-1 cells were pretreated for 1 hr with idoBR1 or cucumber extract-Q-actin (batch no. […] Post incubation, the cell supernatant from each of the wells was aspirated into sterile micro centrifuge tubes and centrifuged at 1000 rpm for 2-3 mins. The cell supernatant was then used for evaluation of presence of cytokines using ELISA.
(§2) ELISA plates coated with antibodies for IL-12, IL-1β, or IL-10 (R&D Systems, USA) were used for the following study. To each well 50 μL of Assay Diluent RD1F was added after mixing well. 200 μL of sample (idoBR1 or extract), or control per well was added and covered with an adhesive strip. Following incubation for 2 hours at room temperature each well was aspirated and washed 4 times with Wash Buffer (400 μl). After the last wash, any remaining Wash Buffer was removed by aspirating or decanting. The plates were inverted and blotted against clean paper towels. To each well 200 μl of appropriate human conjugate was added and these then covered with a new adhesive strip and incubated for 1 hour at room temperature. The aspiration/wash was then repeated. 200 μL of Substrate Solution was then added to each well and further incubated for 20 minutes at room temperature protected from light. 50 μL of Stop Solution was added to each well. The colour in the wells was changed from blue to yellow. OD was measured within 30 minutes at 450 nm.

phosphorylated p38 = assay: Western blot of phosphorylated p38 in LPS-stimulated THP-1 cells; format: cell-based, human; settings: vs LPS = 1.00
Method: THP-1 cells were cultured in RPMI media supplemented with mercaptoethanol & glutamine to get 80% confluence in culture flasks, then they were aspirated and centrifuged at 1500 rpm for 5 mins. The cell pellet was then resuspended in 1 ml of RPMI complete media and counted conventionally using a hemocytometer. The cells (5×106) were incubated with PMA (10 ng/ml) in separate dishes to differentiate THP-1 cells. To determine the protein expression p38 & p42/44, THP-1 cells were pre-treated for 1 hr with idoBR1-100 μg/ml & 50 μg/ml and cucumber extract (Q-actin batch no. B17CF001)—200 μg/ml & 100 μg/ml, followed by 2 hr LPS (1 μg/ml) stimulation. Post incubation, the cells were harvested and whole protein was isolated.
Cell pellets were lysed, and the protein concentration was determined using the Bio-Rad protein determination assay (Bio-Rad). Total cell proteins were subjected to 8% polyacrylamide SDS gel electrophoresis followed by transfer onto polyvinylidene difluoride membranes (Thermoscientific). The membranes were probed with either mouse anti-phospho-p38 mAb (Thermoscientific) or mouse anti-phospho-p42/44 mAb (Thermoscientific), followed by horseradish peroxidase-conjugated goat anti-mouse polyclonal antibodies (Thermoscientific). All immunoblots were visualized by ECL (Amersham Biosciences).

TNF-α = assay: Production of TNF-α by human monocytic cell line THP-1; format: cell-based; settings: Homo sapiens, THP-1
Method: THP-1 cells are commercially available. Cultured cells can be placed in RPMI complete medium in microtitre plates (e.g. […] in 96 well plates) and after 24 hrs incubation, PMA (10 ng/mi) added to 96 well plate to differentiate THP-1 cells and to determine the effects on TNF-α and IL-10 production. The cells should be pre-treated with cucumber extract at, for example, 200 μg/ml to 25 μg/ml followed by 2 hr LPS (100 ng/ml) stimulation. Post incubation, the cell supernatant is aspirated from each of the wells into sterile micro centrifuge tubes and centrifuged at 1000 rpm for 2-3 mins to settle any cells if present. The cell supernatant is then used for evaluation of presence of TNF-α or IL-10 using ELISA. Sandwich ELISA plates coated with suitable antibody are widely available (e.g. R&D Systems, USA).
A second study indicated even greater activity for idoBR1 in human blood (significant at 0.01 μM) with pre-incubation. […] The data clearly indicate that idoBR1 can inhibit the production of TNF-α in human blood. Thus, it appears that it may be a potent anti-inflammatory agent. It also appears that it may be acting via a novel mechanism distinct from the steroid receptor pathways.

IL-12 = IL-12 ELISA in LPS stimulated THP-1 cells; format: cell-based, human; settings: for % reduction in IL-12 levels: vs LPS control
Method: as §1, §2

IL-10 = IL-10 ELISA in LPS stimulated THP-1 cells; format: cell-based, human; settings: for Fold increase in IL-10 levels: vs control = 1.00
Method: as §1, §2

SMILES: O=C(O)[C@@H]1NC[C@H](O)[C@@H](O)[C@@H]1O [idoBR1, (2R,3R,4R,5S)-3,4,5-trihydroxypiperidine-2-carboxylic acid]
- IL-1β (IL-1β; 12.5 μg/mL): 133.30 pg/mL
- % reduction in IL-1 β levels (IL-1β; 12.5 μg/mL): 9.31%
- IL-1β (IL-1β; 25 μg/mL): 127.63 pg/mL
- % reduction in IL-1 β levels (IL-1β; 25 μg/mL): 13.17%
- IL-1β (IL-1β; 50 μg/mL): 120.36 pg/mL
- % reduction in IL-1 β levels (IL-1β; 50 μg/mL): 18.12%
- IL-1β (IL-1β; 100 μg/mL): 111.60 pg/mL
- % reduction in IL-1 β levels (IL-1β; 100 μg/mL): 24.07%
- Relative expression of p38 (phosphorylated p38; 50 μg/ml): 0.88
- Relative expression of p38 (phosphorylated p38; 100 μg/ml): 0.80
- inhibition at 10 µM (TNF-α; 10 μM): > 50%
- IC50 (TNF-α; 48 hr preincubation, read-out: IC50 for inhibition of the production of TNF-α by THP-1 cells): 27 nM
- IL-12 (IL-12; 12.5 μg/mL): 104.23 pg/mL
- % reduction in IL-12 levels (IL-12; 12.5 μg/mL): 11.22%
- IL-12 (IL-12; 25 μg/mL): 97.37 pg/mL
- % reduction in IL-12 levels (IL-12; 25 μg/mL): 17.07%
- IL-12 (IL-12; 50 μg/mL): 92.89 pg/mL
- % reduction in IL-12 levels (IL-12; 50 μg/mL): 20.88%
- IL-12 (IL-12; 100 μg/mL): 88.60 pg/mL
- % reduction in IL-12 levels (IL-12; 100 μg/mL): 24.53%
- IL-10 (IL-10; 12.5 μg/mL): 19.02 pg/mL
- Fold increase in IL-10 levels (IL-10; 12.5 μg/mL): 1.34 fold
- IL-10 (IL-10; 25 μg/mL): 29.34 pg/mL
- Fold increase in IL-10 levels (IL-10; 25 μg/mL): 2.07 fold
- IL-10 (IL-10; 50 μg/mL): 37.22 pg/mL
- Fold increase in IL-10 levels (IL-10; 50 μg/mL): 2.63 fold
- IL-10 (IL-10; 100 μg/mL): 43.08 pg/mL
- Fold increase in IL-10 levels (IL-10; 100 μg/mL): 3.04 fold
